{"source": "patent US9187472B2", "about": "(AbbVie Inc., priority 2012, dated 2015)"}
{"system": "PC3 cells", "assay": "NAMPT Cell Proliferation Assay", "format": "cell-based", "settings": "Homo sapiens, PC-3, 120 h, 5 days incubation, cell viability by Cell Titer Glo", "summary_of_the_method": "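IC50 values derive from sigmoidal dose-response fits of percent inhibition of PC3 viability, measured by luminescence after 5 days of compound treatment. Cells (500/well, RPMI containing 10% heat-inactivated FBS) are allowed to attach overnight, and compounds are tested at 10-fold dilutions between 10 μM and 1×10^−5 μM.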", "units": {"IC50": "nM"}}
{"smiles": "COc1ccccc1C(=O)Nc1ccc(C(=O)NCc2ccn3ccnc3c2)cc1", "note": "[Example 880, N-{4-[(imidazo[1,2-a]pyridin-7-ylmethyl)carbamoyl]phenyl}-2-methoxybenzamide]", "IC50": 750}
{"smiles": "CCn1cc(C(=O)N2CCC(c3ccc(NC(=O)NCc4ccn5ccnc5c4)cc3)CC2)c(C(C)C)n1", "note": "[Example 1134, 1-[4-(1-{[1-ethyl-3-(propan-2-yl)-1H-pyrazol-4-yl]carbonyl}piperidin-4-yl)phenyl]-3-(imidazo[1,2-a]pyridin-7-ylmethyl)urea]", "IC50": 5.51}
{"smiles": "N#Cc1cc(F)cc(C(=O)N2CCC(c3ccc(C(=O)NCc4ccn5ccnc5c4)cc3)CC2)c1", "note": "[Example 996, 4-[1-(3-cyano-5-fluorobenzoyl)piperidin-4-yl]-N-(imidazo[1,2-a]pyridin-7-ylmethyl)benzamide]", "IC50": 62}
{"smiles": "O=C(NCc1cn2ccnc2cn1)c1ccc(C2CCN(C(=O)c3ccc(F)cc3F)CC2)s1", "note": "[Example 829, 5-[1-(2,4-difluorobenzoyl)piperidin-4-yl]-N-(imidazo[1,2-a]pyrazin-6-ylmethyl)thiophene-2-carboxamide]", "IC50": 1.77}
{"smiles": "CN1CCC(C(=O)N2CCC(c3ccc(C(=O)NCc4ccc5ncnn5c4)s3)CC2)CC1", "note": "[Example 851, 5-{1-[(1-methylpiperidin-4-yl)carbonyl]piperidin-4-yl}-N-([1,2,4]triazolo[1,5-a]pyridin-6-ylmethyl)thiophene-2-carboxamide]", "IC50": 133}
{"smiles": "O=C(NCc1ccn2ccnc2c1)c1ccc(C2CCN(C(=O)c3cnc(C4CC4)s3)CC2)cc1", "note": "[Example 1084, 4-{1-[(2-cyclopropyl-1,3-thiazol-5-yl)carbonyl]piperidin-4-yl}-N-(imidazo[1,2-a]pyridin-7-ylmethyl)benzamide]", "IC50": 14.8}
{"smiles": "Cc1cc(C(=O)N2CCC(c3ccc(C(=O)NCc4ccn5ccnc5c4)cc3)CC2)nn1C(F)F", "note": "[Example 1109, 4-(1-{[1-(difluoromethyl)-5-methyl-1H-pyrazol-3-yl]carbonyl}piperidin-4-yl)-N-(imidazo[1,2-a]pyridin-7-ylmethyl)benzamide]", "IC50": 9.21}
{"smiles": "O=C(NCc1ccn2ccnc2c1)c1ccc(C2CCN(C(=O)c3cc(Cl)ncc3F)CC2)cc1", "note": "[Example 1061, 4-{1-[(2-chloro-5-fluoropyridin-4-yl)carbonyl]piperidin-4-yl}-N-(imidazo[1,2-a]pyridin-7-ylmethyl)benzamide]", "IC50": 7.84}
{"smiles": "COc1ccc(C(=O)N2CCC(c3ccc(C(=O)NCc4ccn5ccnc5c4)cc3)CC2)nc1OC", "note": "[Example 1115, 4-{1-[(5,6-dimethoxypyridin-2-yl)carbonyl]piperidin-4-yl}-N-(imidazo[1,2-a]pyridin-7-ylmethyl)benzamide]", "IC50": 21.2}
{"smiles": "O=C(NCc1ccn2ccnc2c1)c1ccc(C2CCN(C(=O)C3CC=CCC3)CC2)cc1", "note": "(centres unmarked) [Example 920, 4-[1-(cyclohex-3-en-1-ylcarbonyl)piperidin-4-yl]-N-(imidazo[1,2-a]pyridin-7-ylmethyl)benzamide]", "IC50": 7.94}
{"smiles": "COc1csc(C(=O)N2CCC(c3ccc(NC(=O)NCc4ccn5ccnc5c4)cc3)CC2)c1", "note": "[Example 1130, 1-(imidazo[1,2-a]pyridin-7-ylmethyl)-3-(4-{1-[(4-methoxythiophen-2-yl)carbonyl]piperidin-4-yl}phenyl)urea]", "IC50": 2.96}
{"smiles": "O=C(NCc1ccn2ccnc2c1)Nc1ccc(C2CCN(C(=O)c3ccc4ccncc4c3)CC2)cc1", "note": "[Example 1037, 1-(imidazo[1,2-a]pyridin-7-ylmethyl)-3-{4-[1-(isoquinolin-7-ylcarbonyl)piperidin-4-yl]phenyl}urea]", "IC50": 7.76}
{"smiles": "O=C(NCc1ccn2ccnc2c1)Nc1ccc(C2CCN(C(=O)C(CO)c3ccccc3)CC2)cc1", "note": "(centres unmarked) [Example 948, 1-{4-[1-(3-hydroxy-2-phenylpropanoyl)piperidin-4-yl]phenyl}-3-(imidazo[1,2-a]pyridin-7-ylmethyl)urea]", "IC50": 5.39}
{"smiles": "N#Cc1ccc(C(=O)N2CCC(c3ccc(NC(=O)NCc4ccn5ccnc5c4)cc3)CC2)c(Cl)c1", "note": "[Example 954, 1-{4-[1-(2-chloro-4-cyanobenzoyl)piperidin-4-yl]phenyl}-3-(imidazo[1,2-a]pyridin-7-ylmethyl)urea]", "IC50": 2.76}
{"smiles": "COc1ccsc1C(=O)N1CCC(c2ccc(C(=O)NCc3ccn4ccnc4c3)cc2)CC1", "note": "[Example 1063, N-(imidazo[1,2-a]pyridin-7-ylmethyl)-4-{1-[(3-methoxythiophen-2-yl)carbonyl]piperidin-4-yl}benzamide]", "IC50": 1.89}
{"smiles": "COc1cccc(C)c1C(=O)N1CCC(c2ccc(C(=O)NCc3ccn4ccnc4c3)cc2)CC1", "note": "[Example 1009, N-(imidazo[1,2-a]pyridin-7-ylmethyl)-4-[1-(2-methoxy-6-methylbenzoyl)piperidin-4-yl]benzamide]", "IC50": 1.2}
{"smiles": "CC1(C(=O)N2CCC(c3ccc(C(=O)NCc4ccc5ncnn5c4)s3)CC2)CC1", "note": "[Example 845, 5-{1-[(1-methylcyclopropyl)carbonyl]piperidin-4-yl}-N-([1,2,4]triazolo[1,5-a]pyridin-6-ylmethyl)thiophene-2-carboxamide]", "IC50": 3.89}
{"smiles": "O=C(Cc1ccc2nccn2c1)Nc1ccc(NC(=O)CC2CCCC2)cc1", "note": "[Example 854, 2-cyclopentyl-N-{4-[(imidazo[1,2-a]pyridin-6-ylacetyl)amino]phenyl}acetamide]", "IC50": 0.414}
{"smiles": "O=C(NCc1ccn2ccnc2c1)c1ccc(NC(=O)c2cc(F)cc(F)c2)cc1", "note": "[Example 871, 3,5-difluoro-N-{4-[(imidazo[1,2-a]pyridin-7-ylmethyl)carbamoyl]phenyl}benzamide]", "IC50": 7300}
{"smiles": "O=C(NCc1ccn2ccnc2c1)c1ccc(C2=CCN(c3cc(C(F)(F)F)ncn3)CC2)cc1", "note": "[Example 1156, N-(imidazo[1,2-a]pyridin-7-ylmethyl)-4-{1-[6-(trifluoromethyl)pyrimidin-4-yl]-1,2,3,6-tetrahydropyridin-4-yl}benzamide]", "IC50": 35.4}
{"smiles": "O=C(NCc1ccn2ccnc2c1)Nc1ccc(C2CCN(C(=O)c3ccccn3)CC2)cc1F", "note": "[Example 1075, 1-{2-fluoro-4-[1-(pyridin-2-ylcarbonyl)piperidin-4-yl]phenyl}-3-(imidazo[1,2-a]pyridin-7-ylmethyl)urea]", "IC50": 7.62}
{"smiles": "CC(C)(C)OC(=O)N1CCC(c2ccc(NC(=O)Cc3ccn4ccnc4c3)c(F)c2)CC1", "note": "[Example 1067, tert-butyl 4-{3-fluoro-4-[(imidazo[1,2-a]pyridin-7-ylacetyl)amino]phenyl}piperidine-1-carboxylate]", "IC50": 370}
{"smiles": "CC(C)C1CCCN1C(=O)c1ccc(C(=O)NCc2ccn3ccnc3c2)cc1", "note": "(centres unmarked) [Example 910, N-(imidazo[1,2-a]pyridin-7-ylmethyl)-4-{[2-(propan-2-yl)pyrrolidin-1-yl]carbonyl}benzamide]", "IC50": "> 10000"}
{"smiles": "O=C(NCc1ccn2ccnc2c1)c1ccc(C2CCN(C(=O)c3cccc4ccncc34)CC2)cc1", "note": "[Example 997, N-(imidazo[1,2-a]pyridin-7-ylmethyl)-4-[1-(isoquinolin-8-ylcarbonyl)piperidin-4-yl]benzamide]", "IC50": 19.4}
{"smiles": "CC(C)c1nc(C(=O)N2CCC(c3ccc(NC(=O)NCc4ccn5ccnc5c4)cc3)CC2)co1", "note": "[Example 1145, 1-(imidazo[1,2-a]pyridin-7-ylmethyl)-3-[4-(1-{[2-(propan-2-yl)-1,3-oxazol-4-yl]carbonyl}piperidin-4-yl)phenyl]urea]", "IC50": 7.04}
{"smiles": "CC(C)(C)CC(=O)N1CCC(c2ccc(NC(=O)NCc3ccn4ccnc4c3)c(F)c2)CC1", "note": "[Example 1071, 1-{4-[1-(3,3-dimethylbutanoyl)piperidin-4-yl]-2-fluorophenyl}-3-(imidazo[1,2-a]pyridin-7-ylmethyl)urea]", "IC50": 0.473}
